Measurements from patent US9949478B2, “Herbicidal combination with herbicidal active fatty acids and an ALS-inhibitor” (BAYER CROPSCIENCE AKTIENGESELLSCHAFT, priority 2013, dated 2018).
Values joined by “and” are separate entries in the source; they are usually repeats but may differ in a detail not shown here. Equal values may be shown once.

Columns and labels:
Assay in all cases: Post-emergence test
Type in all cases: in vivo
Achillea millefolium = conditions: 34 days
From the text: (§1) The following formulations of the active compounds involved were used: • fatty acids 120 EC (fatty acid mixture of two fatty acids having hydrocarbon chains of 8 and 10 carbon atoms in a ratio of 60 to 40; for the preparation see EP application number 12177824.5; title: “Emulsifiable Concentrate Formulation with Herbicidal Active Fatty Acids); application date: Jul. 25, 2012). • foramsulfuron 50 WG (water dispersible granule) standard granule formulation without adjuvants • iodosulfuron 10 WG (water dispersible granule) • (commercial formulation Destiny, approved inter alia in Australia—Bayer CropScience) • mesosulfuron 75 WG (water dispersible granule) standard granule formulation without adjuvants • thiencarbazone 70 WG (water dispersible granule) standard granule formulation without adjuvants • flazasulfuron 25 WG (water dispersible granule) • (commercial formulation Chikara, approved inter alia in Germany—product licence holder ISK Biosciences) • amidosulfuron 75 WG (water dispersible granule) • (commercial formulation Hoestar, approved inter alia in Germany—Bayer CropScience) • ethoxysulfuron 60 WG (water dispersible granule) • (commercial formulation SunRice, approved inter alia in Italy—Bayer CropScience)
(§2) The active compound concentrations required for the tests were prepared by dilution with water. The tested active compound combinations were mixed shortly before their biological examination.
(§3) In the case of all herbicide combinations according to the invention, for most of the test plants synergistic actions are observed (see Tables 1 to 25).

Bellis perennis = conditions: 34 days
From the text: as §1, §2, §3

Chenopodium album = tested on: Chenopodium album
From the text: as §1, §2, §3

Festuca ovina = tested on: Festuca ovina
From the text: as §1, §2, §3

Lotus corniculatus = conditions: 34 days
From the text: as §1, §2, §3

Plantago lanceolata = conditions: 34 days
From the text: as §1, §2, §3

Plantago major = tested on: Plantago major
From the text: as §1, §2, §3

Ranunculus repens = conditions: 34 days
From the text: as §1, §2, §3

Rumex acetosa = conditions: 34 days
From the text: as §1, §2, §3

Stellaria media = conditions: 34 days
From the text: as §1, §2, §3

Taraxacum officinale = tested on: Taraxacum officinale
From the text: as §1, §2, §3

Trifolium repens = tested on: Trifolium repens
From the text: as §1, §2, §3

Poa annua = conditions: 48 days
From the text: as §1, §2, §3

[1] = 20 g of active compound/ha, 34 days
[2] = 37.5 g of active compound/ha, 34 days
[3] = 1 g of active compound/ha, 48 days
[4] = 1.25 g of active compound/ha, 34 days
[5] = 1.25 g of active compound/ha, 48 days
[6] = 2.5 g of active compound/ha, 48 days
[7] = 10 g of active compound/ha, 48 days
[8] = 60 g of active compound/ha, 34 days
[9] = 15 g of active compound/ha, 34 days
[10] = 15 g of active compound/ha, 48 days
[11] = 45 g of active compound/ha, 34 days
[12] = 45 g of active compound/ha, 48 days
[13] = 60 g of active compound/ha, 48 days
[14] = 30 g of active compound/ha, 34 days

## COC(=O)c1csc(C)c1S(=O)(=O)NC(=O)n1nc(OC)n(C)c1=O [Thiencarbazone-methyl, methyl 4-[(4,5-dihydro-3-methoxy-4-methyl-5-oxo-1H-1,2,4-triazol-1yl)carbonylsulfamoyl]-5-methylthiophene-3-carboxylate]
Achillea millefolium; 20 g of active compound/ha
  herbicidal effect [%]: 25%
Bellis perennis; 20 g of active compound/ha
  herbicidal effect [%]: 28%
Chenopodium album; [1]
  herbicidal effect [%]: 23%
Festuca ovina; [1]
  herbicidal effect [%]: 42%
Lotus corniculatus; 20 g of active compound/ha
  herbicidal effect [%]: 2%
Plantago lanceolata; 20 g of active compound/ha
  herbicidal effect [%]: 67%
Plantago major; [1]
  herbicidal effect [%]: 87%
Ranunculus repens; 20 g of active compound/ha
  herbicidal effect [%]: 97%
Rumex acetosa; 20 g of active compound/ha
  herbicidal effect [%]: 52%
Stellaria media; 20 g of active compound/ha
  herbicidal effect [%]: 53%
Taraxacum officinale; [1]
  herbicidal effect [%]: 38%
Trifolium repens; [1]
  herbicidal effect [%]: 55%

## COc1cc(OC)nc(NC(=O)NS(=O)(=O)c2ncccc2C(F)(F)F)n1 [Flazasulfuron, 1-(4,6-dimethoxypyrimidin-2-yl)-3-(3-trifluoromethyl-2-pyridylsulfonyl)urea]
Achillea millefolium; 37.5 g of active compound/ha
  herbicidal effect [%]: 67%
Bellis perennis; 37.5 g of active compound/ha
  herbicidal effect [%]: 52%
Chenopodium album; [2]
  herbicidal effect [%]: 70%
Festuca ovina; [2]
  herbicidal effect [%]: 68%
Lotus corniculatus; 37.5 g of active compound/ha
  herbicidal effect [%]: 23%
Plantago lanceolata; 37.5 g of active compound/ha
  herbicidal effect [%]: 7%
Plantago major; [2]
  herbicidal effect [%]: 75%
Ranunculus repens; 37.5 g of active compound/ha
  herbicidal effect [%]: 99%
Rumex acetosa; 37.5 g of active compound/ha
  herbicidal effect [%]: 52%
Stellaria media; 37.5 g of active compound/ha
  herbicidal effect [%]: 95%
Taraxacum officinale; [2]
  herbicidal effect [%]: 87%
Trifolium repens; [2]
  herbicidal effect [%]: 63%

## COc1nc(C)nc(NC(=O)NS(=O)(=O)c2cc(I)ccc2C(=O)[O-])n1.[Na+] [Iodosulfuron-methyl sodium salt, 4-iodo-2-[(4-methoxy-6-methyl-1,3,5-triazin-2-yl)carbamoylsulfamoyl]benzoate, sodium salt]
Achillea millefolium; 1.25 g of active compound/ha
  herbicidal effect [%]: 5%
Bellis perennis; 1.25 g of active compound/ha
  herbicidal effect [%]: 10%
Chenopodium album; [3]
  herbicidal effect [%]: 0%
Chenopodium album; [4]
  herbicidal effect [%]: 13%
Chenopodium album; [5]
  herbicidal effect [%]: 0%
Chenopodium album; [6]
  herbicidal effect [%]: 10%
Chenopodium album; [7]
  herbicidal effect [%]: 40%
Festuca ovina; [3]
  herbicidal effect [%]: 0%
Festuca ovina; [4]
  herbicidal effect [%]: 0%
Festuca ovina; [5]
  herbicidal effect [%]: 0%
Festuca ovina; [6]
  herbicidal effect [%]: 0%
Festuca ovina; [7]
  herbicidal effect [%]: 6.7%
Lotus corniculatus; 1.25 g of active compound/ha
  herbicidal effect [%]: 0%
Plantago lanceolata; 1.25 g of active compound/ha
  herbicidal effect [%]: 3%
Plantago major; [3]
  herbicidal effect [%]: 0%
Plantago major; [4]
  herbicidal effect [%]: 22%
Plantago major; [5]
  herbicidal effect [%]: 3%
Plantago major; [6]
  herbicidal effect [%]: 30%
Plantago major; [7]
  herbicidal effect [%]: 53.3%
Poa annua; 1 g of active compound/ha
  herbicidal effect [%]: 0%
Poa annua; 1.25 g of active compound/ha
  herbicidal effect [%]: 0%
Poa annua; 2.5 g of active compound/ha
  herbicidal effect [%]: 0%
Poa annua; 10 g of active compound/ha
  herbicidal effect [%]: 0%
Ranunculus repens; 1.25 g of active compound/ha
  herbicidal effect [%]: 73%
Rumex acetosa; 1.25 g of active compound/ha
  herbicidal effect [%]: 12%
Stellaria media; 1.25 g of active compound/ha
  herbicidal effect [%]: 22%
Taraxacum officinale; [3]
  herbicidal effect [%]: 18.3%
Taraxacum officinale; [4]
  herbicidal effect [%]: 50%
Taraxacum officinale; [5]
  herbicidal effect [%]: 18%
Taraxacum officinale; [6]
  herbicidal effect [%]: 42%
Taraxacum officinale; [7]
  herbicidal effect [%]: 85%
Trifolium repens; [3]
  herbicidal effect [%]: 18.3%
Trifolium repens; [4]
  herbicidal effect [%]: 10%
Trifolium repens; [5]
  herbicidal effect [%]: 32%
Trifolium repens; [6]
  herbicidal effect [%]: 45%
Trifolium repens; [7]
  herbicidal effect [%]: 80%

## CCOc1ccccc1OS(=O)(=O)NC(=O)Nc1nc(OC)cc(OC)n1 [Ethoxysulfuron, 2-ethoxyphenyl[(4,6-dimethoxypyrimidin-2-yl)carbamoyl]sulfamate]
Achillea millefolium; 60 g of active compound/ha
  herbicidal effect [%]: 13%
Bellis perennis; 60 g of active compound/ha
  herbicidal effect [%]: 10%
Chenopodium album; [8]
  herbicidal effect [%]: 5%
Festuca ovina; [8]
  herbicidal effect [%]: 0%
Lotus corniculatus; 60 g of active compound/ha
  herbicidal effect [%]: 0%
Plantago lanceolata; 60 g of active compound/ha
  herbicidal effect [%]: 5%
Plantago major; [8]
  herbicidal effect [%]: 0%
Ranunculus repens; 60 g of active compound/ha
  herbicidal effect [%]: 92%
Rumex acetosa; 60 g of active compound/ha
  herbicidal effect [%]: 25%
Stellaria media; 60 g of active compound/ha
  herbicidal effect [%]: 5%
Taraxacum officinale; [8]
  herbicidal effect [%]: 38%
Trifolium repens; [8]
  herbicidal effect [%]: 47%

## COC(=O)c1ccc(CNS(C)(=O)=O)cc1S(=O)(=O)NC(=O)Nc1nc(OC)cc(OC)n1 [Mesosulfuron-methyl, methyl 2-[(4,6-dimethoxypyrimidin-2-ylcarbamoyl)sulfamoyl]-a-(methanesulfonamido)-p-toluate]
Achillea millefolium; 15 g of active compound/ha
  herbicidal effect [%]: 4%
Bellis perennis; 15 g of active compound/ha
  herbicidal effect [%]: 5%
Chenopodium album; [9]
  herbicidal effect [%]: 3%
Festuca ovina; [9]
  herbicidal effect [%]: 0%
Lotus corniculatus; 15 g of active compound/ha
  herbicidal effect [%]: 0%
Plantago lanceolata; 15 g of active compound/ha
  herbicidal effect [%]: 0%
Plantago major; [9]
  herbicidal effect [%]: 0%
Ranunculus repens; 15 g of active compound/ha
  herbicidal effect [%]: 80%
Rumex acetosa; 15 g of active compound/ha
  herbicidal effect [%]: 2%
Stellaria media; 15 g of active compound/ha
  herbicidal effect [%]: 2%
Taraxacum officinale; [9]
  herbicidal effect [%]: 42%
Trifolium repens; [9]
  herbicidal effect [%]: 2%

## COc1cc(OC)nc(NC(=O)NS(=O)(=O)c2cc(NC=O)ccc2C(=O)N(C)C)n1 [Foramsulfuron, 1-(4,6-dimethoxypyrimidin-2yl)-3-(2-dimethylcarbamoyl-5-formamidophenylsulfonyl)urea]
Achillea millefolium; 45 g of active compound/ha
  herbicidal effect [%]: 17%
Bellis perennis; 45 g of active compound/ha
  herbicidal effect [%]: 13%
Chenopodium album; [10]
  herbicidal effect [%]: 0%
Chenopodium album; [11]
  herbicidal effect [%]: 8%
Chenopodium album; [12]
  herbicidal effect [%]: 13%
Chenopodium album; [13]
  herbicidal effect [%]: 13.3% and 13%
Festuca ovina; [10]
  herbicidal effect [%]: 6.7%
Festuca ovina; [11]
  herbicidal effect [%]: 35%
Festuca ovina; [12]
  herbicidal effect [%]: 53%
Festuca ovina; [13]
  herbicidal effect [%]: 58.3% and 58%
Lotus corniculatus; 45 g of active compound/ha
  herbicidal effect [%]: 0%
Plantago lanceolata; 45 g of active compound/ha
  herbicidal effect [%]: 8%
Plantago major; [10]
  herbicidal effect [%]: 0%
Plantago major; [11]
  herbicidal effect [%]: 47%
Plantago major; [12]
  herbicidal effect [%]: 23%
Plantago major; [13]
  herbicidal effect [%]: 33.3% and 33%
Poa annua; 15 g of active compound/ha
  herbicidal effect [%]: 18.3%
Poa annua; 45 g of active compound/ha
  herbicidal effect [%]: 48%
Poa annua; 60 g of active compound/ha
  herbicidal effect [%]: 73.3% and 73%
Ranunculus repens; 45 g of active compound/ha
  herbicidal effect [%]: 95%
Rumex acetosa; 45 g of active compound/ha
  herbicidal effect [%]: 11%
Stellaria media; 45 g of active compound/ha
  herbicidal effect [%]: 18%
Taraxacum officinale; [10]
  herbicidal effect [%]: 45%
Taraxacum officinale; [11]
  herbicidal effect [%]: 55%
Taraxacum officinale; [12]
  herbicidal effect [%]: 70%
Taraxacum officinale; [13]
  herbicidal effect [%]: 75%
Trifolium repens; [10]
  herbicidal effect [%]: 18.3%
Trifolium repens; [11]
  herbicidal effect [%]: 20%
Trifolium repens; [12]
  herbicidal effect [%]: 53%
Trifolium repens; [13]
  herbicidal effect [%]: 60%

## COc1cc(OC)nc(NC(=O)NS(=O)(=O)N(C)S(C)(=O)=O)n1 [Amidosulfuron, 3-(4,6-dimethoxypyrimidin-2-yl)-1-(N-methyl-N-methylsulfonylaminosulfonyl)urea]
Achillea millefolium; 30 g of active compound/ha
  herbicidal effect [%]: 18%
Bellis perennis; 30 g of active compound/ha
  herbicidal effect [%]: 33%
Chenopodium album; [14]
  herbicidal effect [%]: 27%
Festuca ovina; [14]
  herbicidal effect [%]: 0%
Lotus corniculatus; 30 g of active compound/ha
  herbicidal effect [%]: 0%
Plantago lanceolata; 30 g of active compound/ha
  herbicidal effect [%]: 13%
Plantago major; [14]
  herbicidal effect [%]: 88%
Ranunculus repens; 30 g of active compound/ha
  herbicidal effect [%]: 96%
Rumex acetosa; 30 g of active compound/ha
  herbicidal effect [%]: 28%
Stellaria media; 30 g of active compound/ha
  herbicidal effect [%]: 10%
Taraxacum officinale; [14]
  herbicidal effect [%]: 88%
Trifolium repens; [14]
  herbicidal effect [%]: 13%
